Experimental data as given in PubChem BioAssay (NCI).
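Tested at 5 concentrations; 48 h exposure; 96-well plates; endpoints linearly interpolated, else capped at highest concentration. TGI: concentration producing complete growth inhibition.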

How the values were obtained:
Assay in all cases: NCI tumour cell line growth inhibition, 48 h
786-0 renal = tested on: 786-0 renal
A498 renal = tested on: A498 renal
A549 NSCLC = tested on: A549 NSCLC
ACHN renal = tested on: ACHN renal
BT-549 breast = tested on: BT-549 breast
CAKI-1 renal = tested on: CAKI-1 renal
CCRF-CEM leukemia = tested on: CCRF-CEM leukemia
COLO 205 colon = tested on: COLO 205 colon
DU-145 prostate = tested on: DU-145 prostate
HCC-2998 colon = tested on: HCC-2998 colon
HCT-116 colon = tested on: HCT-116 colon
HCT-15 colon = tested on: HCT-15 colon
HL-60(TB) leukemia = tested on: HL-60(TB) leukemia
HOP-62 NSCLC = tested on: HOP-62 NSCLC
HOP-92 NSCLC = tested on: HOP-92 NSCLC
HS 578T breast = tested on: HS 578T breast
HT29 colon = tested on: HT29 colon
IGROV1 ovarian = tested on: IGROV1 ovarian
KM12 colon = tested on: KM12 colon
LOX IMVI melanoma = tested on: LOX IMVI melanoma
M14 melanoma = tested on: M14 melanoma
MDA-MB-231 breast = tested on: MDA-MB-231 breast
MDA-MB-435 = tested on: MDA-MB-435
MDA-N = tested on: MDA-N
MOLT-4 leukemia = tested on: MOLT-4 leukemia
NCI-H226 lung = tested on: NCI-H226 lung
NCI-H23 lung = tested on: NCI-H23 lung
NCI-H460 lung = tested on: NCI-H460 lung
NCI/ADR-RES ovarian = tested on: NCI/ADR-RES ovarian
OVCAR-3 ovarian = tested on: OVCAR-3 ovarian
OVCAR-4 ovarian = tested on: OVCAR-4 ovarian
OVCAR-5 ovarian = tested on: OVCAR-5 ovarian
OVCAR-8 ovarian = tested on: OVCAR-8 ovarian
PC-3 prostate = tested on: PC-3 prostate
RPMI-8226 leukemia = tested on: RPMI-8226 leukemia
RXF 393 renal = tested on: RXF 393 renal
SF-268 CNS = tested on: SF-268 CNS
SK-MEL-2 melanoma = tested on: SK-MEL-2 melanoma
SK-MEL-28 melanoma = tested on: SK-MEL-28 melanoma
SK-MEL-5 melanoma = tested on: SK-MEL-5 melanoma
SK-OV-3 ovarian = tested on: SK-OV-3 ovarian
SN12C renal = tested on: SN12C renal
SNB-19 CNS = tested on: SNB-19 CNS
SNB-75 CNS = tested on: SNB-75 CNS
SR leukemia = tested on: SR leukemia
SW-620 colon = tested on: SW-620 colon
T-47D breast = tested on: T-47D breast
U251 CNS = tested on: U251 CNS
UACC-257 melanoma = tested on: UACC-257 melanoma
UACC-62 melanoma = tested on: UACC-62 melanoma

With N=c1oc2ccc3ccccc3c2cc1C(N)=O the TGI (786-0 renal) was > 100 µM, the TGI (A498 renal) was > 100 µM and the TGI (A549 NSCLC) was > 100 µM. The TGI (ACHN renal) was > 100 µM, the TGI (BT-549 breast) was > 100 µM and the TGI (CAKI-1 renal) was > 100 µM. The TGI (CCRF-CEM leukemia) was > 100 µM, the TGI (COLO 205 colon) was > 100 µM and the TGI (DU-145 prostate) was > 100 µM. For the same compound, the TGI (HCC-2998 colon) was 90.6 µM, the TGI (HCT-116 colon) was > 100 µM and the TGI (HCT-15 colon) was > 100 µM. The TGI (HL-60(TB) leukemia) was > 100 µM, the TGI (HOP-62 NSCLC) was > 100 µM and the TGI (HOP-92 NSCLC) was > 100 µM. The TGI (HS 578T breast) was 54.6 µM, the TGI (HT29 colon) was > 100 µM and the TGI (IGROV1 ovarian) was 70.8 µM. The TGI (KM12 colon) was 63 µM, the TGI (LOX IMVI melanoma) was > 100 µM and the TGI (M14 melanoma) was > 100 µM. The TGI (MDA-MB-231 breast) was > 100 µM, the TGI (MDA-MB-435) was > 100 µM and the TGI (MDA-N) was > 100 µM. The TGI (MOLT-4 leukemia) was > 100 µM, the TGI (NCI-H226 lung) was > 100 µM and the TGI (NCI-H23 lung) was > 100 µM. The TGI (NCI-H460 lung) was > 100 µM, the TGI (NCI/ADR-RES ovarian) was > 100 µM and the TGI (OVCAR-3 ovarian) was > 100 µM. For the same compound, the TGI (OVCAR-4 ovarian) was > 100 µM, the TGI (OVCAR-5 ovarian) was > 100 µM and the TGI (OVCAR-8 ovarian) was > 100 µM. The TGI (PC-3 prostate) was > 100 µM, the TGI (RPMI-8226 leukemia) was > 100 µM and the TGI (RXF 393 renal) was > 100 µM. For the same compound, the TGI (SF-268 CNS) was > 100 µM, the TGI (SK-MEL-2 melanoma) was 49.4 µM and the TGI (SK-MEL-28 melanoma) was > 100 µM. For the same compound, the TGI (SK-MEL-5 melanoma) was > 100 µM, the TGI (SK-OV-3 ovarian) was > 100 µM and the TGI (SN12C renal) was > 100 µM. For the same compound, the TGI (SNB-19 CNS) was > 100 µM, the TGI (SNB-75 CNS) was > 100 µM and the TGI (SR leukemia) was > 100 µM. The TGI (SW-620 colon) was > 100 µM, the TGI (T-47D breast) was 99.7 µM and the TGI (U251 CNS) was > 100 µM. For the same compound, the TGI (UACC-257 melanoma) was > 100 µM and the TGI (UACC-62 melanoma) was > 100 µM.
